# Data from US8349877B2, “Ternary fungicidal compositions comprising boscalid and chlorothalonil” (BASF SE, priority 2007, dated 2013).
# Where two headings read alike, the source gives them in different places.
# What was measured:
# Colleotrichum truncatum = assay: Activity against Colleotrichum truncatum in the microtiterplate test; format: cell-based; conditions: 168 h, read-out: Observed efficacy
# Alternaria solani = conditions: 4 ppm; 7 days after inoculation
# Pyricularia oryzae = format: cell-based; conditions: 7 days after inoculation
# Fusarium culmorum = assay: Activity against Fusarium culmorum in the microtiterplate test; format: cell-based; conditions: 0.063 ppm; 7 days after inoculation
# [1] = 4 ppm, 7 days after inoculation
smiles,measurement,setting,value
"O=C1C2CC=CCC2C(=O)N1SC(Cl)(Cl)Cl (stereo not drawn) [Captan, N-(trichloromethylthio)cyclohex-4-ene-1,2-dicarboximide]",inhibition of growth at 1 ppm,Colleotrichum truncatum; 7 days after inoculation,49%
"COC=C(C(=O)OC)c1ccccc1COc1cccc(C(F)(F)F)n1 [Picoxystrobin, methyl 3-methoxy-2-[2-(6-trifluoromethylpyridin-2-yloxymethyl)phenyl]-acrylate]",inhibition of growth at 0.25 ppm,"Colleotrichum truncatum; 0.25 ppm, 7 days after inoculation",32%
"CC(C)NC(=O)N1CC(=O)N(c2cc(Cl)cc(Cl)c2)C1=O [Iprodion, N-isopropyl-3-(3,5-dichlorophenyl)-2,4-dioxoimidazolidine-1-carboxamide]",inhibition of growth at 1 ppm,Colleotrichum truncatum; 7 days after inoculation,7%
"CC1(C)CC/C(=C\c2ccc(Cl)cc2)C1(O)Cn1cncn1 (stereo not drawn) [Triticonazol, (5E)-5-[(4-chlorophenyl)methylene]-2,2-dimethyl-1-(1H-1,2,4-triazol-1-ylmethyl)cyclopentanol]",inhibition of growth at 1 ppm,Colleotrichum truncatum; 7 days after inoculation,7%
"CC(C)(C)C(O)(CCc1ccc(Cl)cc1)Cn1cncn1 (stereo not drawn) [Tebuconazole, 1-(4-chlorophenyl)-4,4-dimethyl-3-[1,2,4]triazol-1-ylmethylpentan-3-ol]",inhibition of growth at 4 ppm,Colleotrichum truncatum; [1],0%
same,Observed efficacy,Alternaria solani,0%
"CO/N=C(/C1=NOCCO1)c1ccccc1Oc1ncnc(Oc2ccccc2Cl)c1F [Fluoxastrobin, (E)-{2-[6-(2-chlorophenoxy)-5-fluoropyrimidin-4-yloxy]phenyl}(5,6-dihydro-1,4,2-dioxazin-3-yl)methanone O-methyloxime]",inhibition of growth at 1 ppm,Colleotrichum truncatum; 7 days after inoculation,32%
"Fc1ccc([C@]2(Cn3cncn3)O[C@H]2c2ccccc2Cl)cc1 (racemic) [Epoxiconazol, (2RS,3SR)-1-[3-(2-chlorophenyl)-2,3-epoxy-2-(4-fluorophenyl)propyl]-1H-1,2,4-triazole]",Observed efficacy,Pyricularia oryzae; 0.063 ppm,4%
same,Observed efficacy,Pyricularia oryzae; 1 ppm,40%
"CC(C)OC(=O)N[C@H](C(=O)N[C@H](C)c1nc2ccc(F)cc2s1)C(C)C [Benthivalicarb, isopropyl {(S)-1-[(1R)-1-(6-fluorobenzothiazol-2-yl)-ethylcarbamoyl]-2-methylpropyl}carbamate]",inhibition of growth at 4 ppm,Colleotrichum truncatum,0%
same,Observed efficacy,Alternaria solani,0%
"CC1(C)CCC(Cc2ccc(Cl)cc2)C1(O)Cn1cncn1 (stereo not drawn) [Metconazol, 5-(4-chlorobenzyl)-2,2-dimethyl-1-[1,2,4]triazol-1-ylmethylcyclopentanol]",Observed efficacy,Fusarium culmorum,31%
same,Observed efficacy,Pyricularia oryzae; 0.063 ppm,0%
same,Observed efficacy,Pyricularia oryzae; 0.25 ppm,5%
"Cc1cc(C)nc(Nc2ccccc2)n1 [Pyrimethanil, 4,6-dimethylpyrimidin-2-ylphenylamine]",inhibition of growth at 4 ppm,Colleotrichum truncatum; [1],7%
